From PMC5384750 (PLoS ONE, 2017)

What was measured:
[1] = biological target: T1, insulin-degrading enzyme (IDE) (Homo sapiens, UniProt P14735); test: Inhibition of / competition with sp6 or sp6BY degradation in S10 extract; format: biochemical; settings: 30 min, 37°C; for stabilization of sp6BY by known IDE-inhibitors: 10 ng sp6BY, 5 μg S10 extract, increasing concentrations, fluorescence, at least three independent experiments (S2 Fig); for stabilization of sp6 by protease inhibitor (initial screen): 100 ng sp6, 5 μg S10 extract, Western blot, 1.3 mM EDTA, 130 μM Bestatin, 600 nM Phosphoramidon
T1 construct: endogenous in cells; host or cells: HeLa cells (cytosolic S10 extract)
T1 sequence (P14735 whole entry): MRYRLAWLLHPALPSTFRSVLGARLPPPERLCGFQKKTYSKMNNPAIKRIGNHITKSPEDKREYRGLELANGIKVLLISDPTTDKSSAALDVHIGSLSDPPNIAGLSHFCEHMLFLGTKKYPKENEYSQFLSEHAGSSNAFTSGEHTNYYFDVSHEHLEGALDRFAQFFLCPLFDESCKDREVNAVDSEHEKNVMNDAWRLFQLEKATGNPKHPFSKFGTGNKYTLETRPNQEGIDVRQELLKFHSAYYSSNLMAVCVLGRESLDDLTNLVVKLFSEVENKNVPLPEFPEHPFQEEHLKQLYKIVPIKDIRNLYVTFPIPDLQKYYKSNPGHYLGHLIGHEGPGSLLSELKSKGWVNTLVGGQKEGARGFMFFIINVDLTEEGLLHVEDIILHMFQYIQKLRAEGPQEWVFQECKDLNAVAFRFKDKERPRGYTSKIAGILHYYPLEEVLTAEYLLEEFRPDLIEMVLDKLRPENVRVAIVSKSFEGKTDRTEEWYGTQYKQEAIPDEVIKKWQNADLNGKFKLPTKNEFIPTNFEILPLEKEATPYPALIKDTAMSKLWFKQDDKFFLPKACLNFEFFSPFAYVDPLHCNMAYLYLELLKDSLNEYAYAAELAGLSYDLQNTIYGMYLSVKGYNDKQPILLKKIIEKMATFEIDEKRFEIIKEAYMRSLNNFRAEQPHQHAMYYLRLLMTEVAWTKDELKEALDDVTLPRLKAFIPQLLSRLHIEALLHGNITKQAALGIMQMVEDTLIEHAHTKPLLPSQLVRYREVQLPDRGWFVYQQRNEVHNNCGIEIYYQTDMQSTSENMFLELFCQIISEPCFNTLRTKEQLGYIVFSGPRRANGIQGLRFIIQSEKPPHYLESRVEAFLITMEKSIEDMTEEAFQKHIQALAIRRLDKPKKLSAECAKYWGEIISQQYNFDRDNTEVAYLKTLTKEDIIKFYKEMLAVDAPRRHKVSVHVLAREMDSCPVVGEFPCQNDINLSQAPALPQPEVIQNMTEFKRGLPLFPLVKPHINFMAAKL
Description: (§1) For generation of S10, confluent dishes with HeLa cells were extensively washed and subsequently lysed with a modified S10 buffer (250 mM sucrose, 80 mM KCl, 10 mM Tris pH 7.6, 0.1% (v/v) Triton X-100 [91]). Debris and nuclei were removed by centrifugation at 10.000 × g for 10 min. Protein content was determined by BCA-Assay (Pierce) and aliquots stored at -80°C.
(§2) Reactions were stopped by addition of sample buffer and incubation at 95°C for 5 min. Remaining p6 was detected by Western blotting using an anti-p6 rabbit antiserum. Alternatively, 10 ng of BODIPY FL-labeled sp6 (sp6BY) were used as substrate and detected directly in the polyacrylamide gel by fluorescence scanning. In some experiments the amount of p6 was densitometrically quantified with the software AIDA (Raytest). For the in vitro degradation of amyloid-β 10 ng of Aβ-FITC (abcam) were used analogously to sp6BY. For the in vitro degradation of viral p6, VLPs were pelleted and lysed in IDE enzyme buffer (150 mM NaCl, 50 mM Tris pH 7.4, 0.5% (v/v) Triton X-100). The p6 content was estimated by Western blotting using a dilution series of sp6 with known concentrations. Equivalents of 15 ng were used for digestion experiments and subsequently detected by Western blotting. Experiments carried out with recombinant IDE (Calbiochem) were performed in IDE enzyme buffer.
Bestatin, Chymostatin, E-64, Leupeptin, Pepstatin, Phosphoramidon, Pefabloc SC, EDTA, Aprotinin, Antipain were purchased from Roche as part of a protease inhibitors set and used at the following concentrations: 74 μM Antipain; 130 μM Bestatin; 100 μM Chymostatin; 28 μM E-64; 1 μM Leupeptin; 1 μM Pepstatin; 600 nM Phosphoramidon; 4 mM Pefabloc SC; 1.3 mM EDTA; […]. […] (Phoenix Pharmaceuticals and Tocris), TPEN (Calbiochem), and NEM (Roche) were purchased from companies indicated.

[2] = In vitro degradation in cytosolic S10 HeLa cell extract; format: in vitro ADME; settings: 10 ng sp6BY E0A or vp6 S40F, S14N, K27/33R; 5 μg S10 extract, 37°C; fluorescence or Western blot; three independent experiments (S1B Fig)
Description: as §1
as §2, with “Typically 5 μg S10 were incubated with inhibitor or buffer and 20–100 ng sp6 at 37°C for 30 min. Reactions” for “Reactions”, “buffer. Recombinant FITC-labeled insulin was purchased from Sigma.” for “buffer.”

recombinant IDE (rIDE) = biological target: T2, recombinant IDE (rIDE) (Rattus norvegicus, UniProt P35559); test: Inhibition of rIDE-mediated degradation of sp6BY; format: biochemical; settings: 10 ng rIDE, 10 ng sp6BY, 30 min, 37°C; TPEN 1 mM, NEM 1 mM, insulin 100 μg/ml
T2 construct: purchased Calbiochem
T2 sequence (P35559 whole entry): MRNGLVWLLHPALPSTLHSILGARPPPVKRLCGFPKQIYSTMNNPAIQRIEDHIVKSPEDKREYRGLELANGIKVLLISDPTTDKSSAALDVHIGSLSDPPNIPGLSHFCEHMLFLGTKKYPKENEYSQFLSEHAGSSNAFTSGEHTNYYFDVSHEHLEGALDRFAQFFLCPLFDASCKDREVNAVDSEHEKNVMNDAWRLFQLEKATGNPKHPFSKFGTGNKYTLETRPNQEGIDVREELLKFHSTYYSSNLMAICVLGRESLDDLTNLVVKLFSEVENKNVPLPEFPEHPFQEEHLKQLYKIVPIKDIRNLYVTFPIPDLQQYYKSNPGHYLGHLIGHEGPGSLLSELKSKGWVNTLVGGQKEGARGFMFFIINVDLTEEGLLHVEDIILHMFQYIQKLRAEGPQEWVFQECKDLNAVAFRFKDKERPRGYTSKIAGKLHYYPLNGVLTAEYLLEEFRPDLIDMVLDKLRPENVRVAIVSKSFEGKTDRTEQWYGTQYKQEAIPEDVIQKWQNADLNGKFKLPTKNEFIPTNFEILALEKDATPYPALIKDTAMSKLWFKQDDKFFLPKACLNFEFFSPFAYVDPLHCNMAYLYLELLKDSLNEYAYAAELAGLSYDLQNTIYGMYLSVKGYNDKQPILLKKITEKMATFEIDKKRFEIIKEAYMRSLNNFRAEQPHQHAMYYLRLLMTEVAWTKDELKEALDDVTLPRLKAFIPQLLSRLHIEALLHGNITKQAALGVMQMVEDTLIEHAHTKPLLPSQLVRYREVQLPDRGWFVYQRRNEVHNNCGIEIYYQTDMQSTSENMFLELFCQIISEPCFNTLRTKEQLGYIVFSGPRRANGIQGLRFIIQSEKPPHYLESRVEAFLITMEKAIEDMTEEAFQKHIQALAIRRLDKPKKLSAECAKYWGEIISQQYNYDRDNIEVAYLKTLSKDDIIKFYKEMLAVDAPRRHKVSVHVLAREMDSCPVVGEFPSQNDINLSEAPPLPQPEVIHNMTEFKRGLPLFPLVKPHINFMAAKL
Description: Fig 6 IDE is sufficient and required for the in vitro degradation of sp6 and vp6. (A) 10 ng sp6BY were incubated with 5 μg S10 extract from HeLa cells, either untransfected or transfected with control or IDE-specific siRNA, for 0, 10, 30 or 90 min at 37°C. (B) sp6BY was detected by fluorescence emission and quantified. (C) VLP lysates from HEK293T cells were incubated with S10 from siRNA treated cells described in A. Viral proteins were detected as described in Fig 1. (D) Western blot analyses of the S10 extract used in A and C. The membrane was stained with antibodies specific for IDE, HSP70, and β-actin. […] (F) VLP lysates were incubated with 10 ng rIDE for 30 min.
as §2, with “Typically 5 μg S10 were incubated with inhibitor or buffer and 20–100 ng sp6 at 37°C for 30 min. Reactions” for “Reactions”, “buffer. Recombinant FITC-labeled insulin was purchased from Sigma.” for “buffer.”

[3] = cytosolic S10 HeLa cell extract (S10); settings: 37°C, up to 60 min
purified mammalian IDE = settings: cited from earlier work

Nc1ncnc2c1ncn2[C@@H]1O[C@H](COP(=O)(O)OP(=O)(O)OP(=O)(O)O)[C@@H](O)[C@H]1O [ATP]
stabilization of sp6BY by known IDE-inhibitors [1]: prevented the degradation of p6

CC(C)C[C@H](NC(=O)[C@@H](O)[C@H](N)Cc1ccccc1)C(=O)O [Bestatin]
stabilization of sp6 by protease inhibitor (initial screen) [1]: did not stabilize p6

O=C(O)CN(CCN(CC(=O)O)CC(=O)O)CC(=O)O [EDTA]
stabilization of sp6 by protease inhibitor (initial screen) [1]: could stabilize sp6

CC[C@H](C)[C@H](NC(=O)[C@@H]1CCCN1C(=O)[C@H](CCC(=O)O)NC(=O)[C@H](CCC(N)=O)NC(=O)[C@H](CCCNC(=N)N)NC(=O)[C@H](CCC(N)=O)NC(=O)[C@H](CO)NC(=O)[C@@H]1CCCN1C(=O)[C@@H](NC(=O)[C@@H](NC(=O)[C@@H](NC(=O)[C@H](CCC(=O)O)NC(=O)[C@H](CCC(=O)O)NC(=O)CNC(=O)[C@H](Cc1ccccc1)NC(=O)[C@H](CCCNC(=N)N)NC(=O)[C@H](Cc1ccccc1)NC(=O)[C@H](CO)NC(=O)[C@H](CCC(=O)O)NC(=O)[C@H](CCC(=O)O)NC(=O)[C@@H]1CCCN1C(=O)[C@@H]1CCCN1C(=O)[C@H](C)NC(=O)[C@@H](NC(=O)[C@@H]1CCCN1C(=O)[C@H](CCC(=O)O)NC(=O)[C@@H]1CCCN1C(=O)[C@H](CCCNC(=N)N)NC(=O)[C@H](CO)NC(=O)[C@H](CCC(N)=O)NC(=O)[C@@H](N)CC(C)C)[C@@H](C)O)[C@@H](C)O)[C@@H](C)O)[C@@H](C)O)C(=O)N[C@@H](CC(=O)O)C(=O)N[C@@H](CCCNC(=N)N)C(=O)N[C@@H](CCC(=O)O)C(=O)N[C@@H](CC(C)C)C(=O)N[C@@H](Cc1ccc(O)cc1)C(=O)N1CCC[C@H]1C(=O)N[C@@H](CC(C)C)C(=O)N[C@@H](C)C(=O)N[C@@H](CO)C(=O)N[C@@H](CC(C)C)C(=O)N[C@@H](CCCNC(=N)N)C(=O)N[C@@H](CO)C(=O)N[C@@H](CC(C)C)C(=O)N[C@@H](Cc1ccccc1)C(=O)NCC(=O)N[C@@H](CO)C(=O)N[C@@H](CC(=O)O)C(=O)N1CCC[C@H]1C(=O)N[C@@H](CO)C(=O)N[C@@H](CO)C(=O)N[C@@H](CCC(N)=O)C(=O)O [K27/33R]
degradation efficiency of HIV-1NL4-3 p6 mutants in S10 extract [2]: wt degradation efficiency

CCN1C(=O)C=CC1=O [NEM, N-ethylmaleimide]
stabilization of sp6BY by known IDE-inhibitors [1]: prevented the degradation of p6 | stabilization of sp6 in the presence of rIDE (recombinant IDE (rIDE)): stabilized sp6

CC(C)C[C@H](NP(=O)(O)O[C@@H]1O[C@@H](C)[C@H](O)[C@@H](O)[C@H]1O)C(=O)N[C@@H](Cc1c[nH]c2ccccc12)C(=O)O [Phosphoramidon]
stabilization of sp6 by protease inhibitor (initial screen) [1]: failed to stabilize p6

CC[C@H](C)[C@H](NC(=O)[C@@H]1CCCN1C(=O)[C@H](CCC(=O)O)NC(=O)[C@H](CCC(N)=O)NC(=O)[C@H](CCCCN)NC(=O)[C@H](CCC(N)=O)NC(=O)[C@H](CO)NC(=O)[C@@H]1CCCN1C(=O)[C@@H](NC(=O)[C@@H](NC(=O)[C@@H](NC(=O)[C@H](CCC(=O)O)NC(=O)[C@H](CCC(=O)O)NC(=O)CNC(=O)[C@H](Cc1ccccc1)NC(=O)[C@H](CCCNC(=N)N)NC(=O)[C@H](Cc1ccccc1)NC(=O)[C@H](CC(N)=O)NC(=O)[C@H](CCC(=O)O)NC(=O)[C@H](CCC(=O)O)NC(=O)[C@@H]1CCCN1C(=O)[C@@H]1CCCN1C(=O)[C@H](C)NC(=O)[C@@H](NC(=O)[C@@H]1CCCN1C(=O)[C@H](CCC(=O)O)NC(=O)[C@@H]1CCCN1C(=O)[C@H](CCCNC(=N)N)NC(=O)[C@H](CO)NC(=O)[C@H](CCC(N)=O)NC(=O)[C@@H](N)CC(C)C)[C@@H](C)O)[C@@H](C)O)[C@@H](C)O)[C@@H](C)O)C(=O)N[C@@H](CC(=O)O)C(=O)N[C@@H](CCCCN)C(=O)N[C@@H](CCC(=O)O)C(=O)N[C@@H](CC(C)C)C(=O)N[C@@H](Cc1ccc(O)cc1)C(=O)N1CCC[C@H]1C(=O)N[C@@H](CC(C)C)C(=O)N[C@@H](C)C(=O)N[C@@H](CO)C(=O)N[C@@H](CC(C)C)C(=O)N[C@@H](CCCNC(=N)N)C(=O)N[C@@H](CO)C(=O)N[C@@H](CC(C)C)C(=O)N[C@@H](Cc1ccccc1)C(=O)NCC(=O)N[C@@H](CO)C(=O)N[C@@H](CC(=O)O)C(=O)N1CCC[C@H]1C(=O)N[C@@H](CO)C(=O)N[C@@H](CO)C(=O)N[C@@H](CCC(N)=O)C(=O)O [S14N]
degradation efficiency of HIV-1NL4-3 p6 mutants in S10 extract [2]: wt degradation efficiency

CC[C@H](C)[C@H](NC(=O)[C@@H]1CCCN1C(=O)[C@H](CCC(=O)O)NC(=O)[C@H](CCC(N)=O)NC(=O)[C@H](CCCCN)NC(=O)[C@H](CCC(N)=O)NC(=O)[C@H](CO)NC(=O)[C@@H]1CCCN1C(=O)[C@@H](NC(=O)[C@@H](NC(=O)[C@@H](NC(=O)[C@H](CCC(=O)O)NC(=O)[C@H](CCC(=O)O)NC(=O)CNC(=O)[C@H](Cc1ccccc1)NC(=O)[C@H](CCCNC(=N)N)NC(=O)[C@H](Cc1ccccc1)NC(=O)[C@H](CO)NC(=O)[C@H](CCC(=O)O)NC(=O)[C@H](CCC(=O)O)NC(=O)[C@@H]1CCCN1C(=O)[C@@H]1CCCN1C(=O)[C@H](C)NC(=O)[C@@H](NC(=O)[C@@H]1CCCN1C(=O)[C@H](CCC(=O)O)NC(=O)[C@@H]1CCCN1C(=O)[C@H](CCCNC(=N)N)NC(=O)[C@H](CO)NC(=O)[C@H](CCC(N)=O)NC(=O)[C@@H](N)CC(C)C)[C@@H](C)O)[C@@H](C)O)[C@@H](C)O)[C@@H](C)O)C(=O)N[C@@H](CC(=O)O)C(=O)N[C@@H](CCCCN)C(=O)N[C@@H](CCC(=O)O)C(=O)N[C@@H](CC(C)C)C(=O)N[C@@H](Cc1ccc(O)cc1)C(=O)N1CCC[C@H]1C(=O)N[C@@H](CC(C)C)C(=O)N[C@@H](C)C(=O)N[C@@H](Cc1ccccc1)C(=O)N[C@@H](CC(C)C)C(=O)N[C@@H](CCCNC(=N)N)C(=O)N[C@@H](CO)C(=O)N[C@@H](CC(C)C)C(=O)N[C@@H](Cc1ccccc1)C(=O)NCC(=O)N[C@@H](CO)C(=O)N[C@@H](CC(=O)O)C(=O)N1CCC[C@H]1C(=O)N[C@@H](CO)C(=O)N[C@@H](CO)C(=O)N[C@@H](CCC(N)=O)C(=O)O [S40F]
degradation efficiency of HIV-1NL4-3 p6 mutants in S10 extract [2]: wt degradation efficiency

c1ccc(CN(CCN(Cc2ccccn2)Cc2ccccn2)Cc2ccccn2)nc1 [TPEN]
stabilization of sp6 in the presence of rIDE (recombinant IDE (rIDE)): stabilized sp6

Bacitracin
stabilization of sp6BY by known IDE-inhibitors [1]: prevented the degradation of p6

PIQQKSQHNKSVVQETPQTQNLYPDLSEIKKEYNVKEKDQVEDLNLDSLWE
not cleaved [3]: no degradation observed (up to 60 min)

PMAQVHQGLMPTAPPEDPAVDLLKNYMQLGKQQREKQRESREKPYKEVTEDLLHLNSLFGGDQ
not cleaved [3]: no degradation observed (up to 60 min)

PVAQVPQGLTPTAPPVDPAVDLLEKYMQQGKRQREQRERPYKEVTEDLLHLEQGETPYREPPTEDLLHLNSLFGKDQ
not cleaved [3]: no degradation observed (up to 60 min)

amyloid-β [Aβ]
kcat (purified mammalian IDE; purified mammalian IDE): 0.875 s⁻¹ | Km (purified mammalian IDE; rounded value): 1.2 µM
